In patent US5288709A, “Erythromycin derivatives” (priority 1991, dated 1994):
Values after ≈ are worked out from the molar mass of the structure shown. Like-named read-outs stand apart in the source and are kept apart here.

How the values were obtained:
Experiment in all cases: In-vitro antimicrobial activity primary screen (agar dilution MIC)
Assay type in all cases: cell-based
[1] = system: Enterobacter aerogenes ATCC 13048; conditions: Klebsiella aerogenes
In short: (§1)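 Steps: prepare 12 BHI agar plates with serial aqueous dilutions; inoculate with 1:100 dilutions (1:10 for Streptococcus and other slow growers); incubate 35-37° C, 20-24 h; score MIC as lowest concentration with no growth, slight haze or isolated colonies.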

[2] = system: Enterococcus faecium ATCC 8043
In short: as §1

Escherichia coli DC-2 = system: Escherichia coli DC-2
In short: as §1

Escherichia coli H560 = conditions: Escherichia coli, H560, 24 h
In short: as §1

Escherichia coli JUHL = system: Escherichia coli JUHL
In short: as §1

Escherichia coli SS = conditions: BHI agar, 20-24 h
In short: as §1

[3] = system: Klebsiella pneumoniae ATCC 8045
In short: as §1

[4] = system: Micrococcus luteus ATCC 4698; conditions: 20-24 h
In short: as §1

[5] = system: Micrococcus luteus ATCC 9341; conditions: 20-24 h
In short: as §1

[6] = system: Providencia stuartii CMX 640
In short: as §1

[7] = system: Pseudomonas aeruginosa A5007
In short: as §1

[8] = system: Pseudomonas aeruginosa BMH10; conditions: Pseudomonas aeruginosa, BMH10, 24 h, BHI agar, 20-24 h
In short: as §1

[9] = system: Pseudomonas aeruginosa K799/WT
In short: as §1

Pseudomonas cepacia 2961 = conditions: BHI agar, 20-24 h
In short: as §1

[10] = system: Staphylococcus aureus 45 RAR2; conditions: Staphylococcus aureus, 45RAR2, 24 h, BHI agar, 20-24 h
In short: as §1

Staphylococcus aureus 45 = conditions: BHI agar, 20-24 h
In short: as §1

[11] = system: Staphylococcus aureus 642A; conditions: BHI agar, 20-24 h, read-out: MIC
In short: as §1

[12] = system: Staphylococcus aureus A5177; conditions: Staphylococcus aureus, A5177, 24 h
In short: as §1

[13] = system: Staphylococcus aureus ATCC 6538P; conditions: ATCC6538P, BHI agar, 20-24 h
In short: as §1

[14] = system: Staphylococcus aureus NCTC 10649; conditions: NCTC10649, BHI agar, 20-24 h, read-out: MIC
In short: as §1

[15] = system: Staphylococcus epidermidis 3519; conditions: BHI agar, 20-24 h
In short: as §1

[16] = system: Streptococcus agalactiae CMX 508; conditions: 20-24 h
In short: as §1

[17] = system: Streptococcus bovis A5169; conditions: Streptococcus equinus, A5169, 24 h, BHI agar, 20-24 h
In short: as §1

[18] = system: Streptococcus pyrogenes 2548 INDUC; conditions: BHI agar, 20-24 h
In short: as §1

[19] = system: Streptococcus pyrogenes EES61; conditions: BHI agar, 20-24 h
In short: as §1

[20] = system: Staphylococcus aureus CMX 553; conditions: Staphylococcus aureus, CMX553, 24 h, BHI agar, 20-24 h, read-out: MIC
In short: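 Agar dilution in Brain Heart Infusion agar with twelve successive compound dilutions; plates inoculated with 1:100 diluted cultures by replicator and incubated 20-24 h at 35-37 °C. MIC is the lowest concentration giving no growth, slight haze or sparse isolated colonies versus compound-free control; erythromycin A plate run as reference.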

Acinetobacter SP CMX 669 = conditions: Acinetobacter, SPCMX669, 24 h, Acinetobacter SP CMX 669; BHI agar, 20-24 h
In short: as §1

[21] = system: Pseudomonas aeruginosa K799/61; conditions: Pseudomonas aeruginosa K799/61, BHI agar, 20-24 h
In short: as §1

[22] = Enterococcus faecium, ATCC8043, 24 h
[23] = Klebsiella pneumoniae, ATCC8045, 24 h
[24] = Micrococcus luteus, ATCC4698, 24 h, BHI agar
[25] = ATCC9341, BHI agar, read-out: MIC
[26] = Providencia stuartii, CMX640, 24 h
[27] = Pseudomonas aeruginosa, A5007, 24 h
[28] = Pseudomonas aeruginosa, K799/WT, 24 h
[29] = Burkholderia cepacia, 2961, 24 h
[30] = Staphylococcus aureus, 45, 24 h
[31] = Staphylococcus epidermidis, 3519, 24 h
[32] = CMX508, BHI agar, read-out: MIC

## CC[C@H]1OC(=O)[C@H](C)[C@@H](O[C@H]2C[C@@](C)(OC)[C@@H](O)[C@H](C)O2)[C@H](C)[C@@H](O[C@@H]2O[C@H](C)C[C@H](N(C)C)[C@H]2O)[C@](C)(OC)C[C@@H](C)C2=C(C)C(=O)[C@]1(C)O2 [Example 27, 9,10-Dihehydro-9-deoxo-11,12-dideoxy-9,12-epoxy-6-O-methyl-11-oxoerythromycin A]
[1]; ATCC13048, 24 h
  MIC: > 100 µg/mL
[2]; [22]
  MIC: 0.1 µg/mL (≈ 0.137 µM)
Escherichia coli DC-2; Escherichia coli, DC2, 24 h
  MIC: > 100 µg/mL
Escherichia coli H560
  MIC: 100 µg/mL (≈ 137 µM)
Escherichia coli JUHL; Escherichia coli, 24 h
  MIC: > 100 µg/mL
Escherichia coli SS; read-out: MIC
  MIC: 0.78 µg/mL (≈ 1.07 µM)
[3]; [23]
  MIC: > 100 µg/mL
[4]; [24]
  MIC: 0.2 µg/mL (≈ 0.275 µM)
[5]; [25]
  MIC: 0.05 µg/mL (≈ 0.0687 µM)
[6]; [26]
  MIC: > 100 µg/mL
[7]; [27]
  MIC: > 100 µg/mL
[8]
  MIC: 100 µg/mL (≈ 137 µM)
[9]; [28]
  MIC: > 100 µg/mL
Pseudomonas cepacia 2961; [29]
  MIC: > 100 µg/mL
[10]
  MIC: 0.39 µg/mL (≈ 0.536 µM)
Staphylococcus aureus 45; [30]
  MIC: 3.1 µg/mL (≈ 4.26 µM)
[11]
  MIC: 0.39 µg/mL (≈ 0.536 µM)
[12]
  MIC: 0.39 µg/mL (≈ 0.536 µM)
[13]; Staphylococcus aureus, 24 h
  MIC: 0.39 µg/mL (≈ 0.536 µM)
[14]
  MIC: 0.39 µg/mL (≈ 0.536 µM)
[15]; [31]
  MIC: 0.39 µg/mL (≈ 0.536 µM)
[16]; Streptococcus agalactiae, CMX508, 24 h, BHI agar
  MIC: 0.05 µg/mL (≈ 0.0687 µM)
[17]
  MIC: 0.05 µg/mL (≈ 0.0687 µM)
[18]; read-out: MIC
  MIC: 100 µg/mL (≈ 137 µM)
[19]; Streptococcus, EES61, 24 h
  MIC: 0.05 µg/mL (≈ 0.0687 µM)
[20]
  MIC: 0.39 µg/mL (≈ 0.536 µM)

## CC[C@H]1OC(=O)[C@H](C)[C@@H](O[C@H]2C[C@@](C)(OC)[C@@H](O)[C@H](C)O2)[C@H](C)[C@@H](O[C@@H]2O[C@H](C)C[C@H](N(C)C)[C@H]2O)[C@](C)(OC)C[C@@H](C)[C@@H]2O[C@@]1(C)C(=O)[C@H]2C [Example 28B]
Acinetobacter SP CMX 669
  MIC: 12.5 µg/mL (≈ 17.1 µM)
[1]; ATCC13048, 24 h
  MIC: > 100 µg/mL
[2]; [22]
  MIC: 0.1 µg/mL (≈ 0.137 µM)
Escherichia coli DC-2; Escherichia coli, DC2, 24 h
  MIC: > 100 µg/mL
Escherichia coli H560
  MIC: > 100 µg/mL
Escherichia coli JUHL; Escherichia coli, 24 h
  MIC: > 100 µg/mL
Escherichia coli SS; read-out: MIC
  MIC: 0.39 µg/mL (≈ 0.534 µM)
[3]; [23]
  MIC: > 100 µg/mL
[4]; [24]
  MIC: 0.1 µg/mL (≈ 0.137 µM)
[5]; [25]
  MIC: 0.05 µg/mL (≈ 0.0685 µM)
[6]; [26]
  MIC: > 100 µg/mL
[7]; [27]
  MIC: > 100 µg/mL
[8]
  MIC: 50 µg/mL (≈ 68.5 µM)
[21]; Pseudomonas aeruginosa, K799/61, 24 h
  MIC: 3.1 µg/mL (≈ 4.25 µM)
[9]; [28]
  MIC: > 100 µg/mL
Pseudomonas cepacia 2961; [29]
  MIC: > 100 µg/mL
[10]
  MIC: 0.39 µg/mL (≈ 0.534 µM)
Staphylococcus aureus 45; [30]
  MIC: 3.1 µg/mL (≈ 4.25 µM)
[11]
  MIC: 0.39 µg/mL (≈ 0.534 µM)
[12]
  MIC: 0.39 µg/mL (≈ 0.534 µM)
[13]; Staphylococcus aureus, 24 h
  MIC: 0.39 µg/mL (≈ 0.534 µM)
[14]
  MIC: 0.39 µg/mL (≈ 0.534 µM)
[15]; [31]
  MIC: 0.39 µg/mL (≈ 0.534 µM)
[16]; [32]
  MIC: 0.02 µg/mL (≈ 0.0274 µM)
[17]
  MIC: 0.05 µg/mL (≈ 0.0685 µM)
[18]; Streptococcus, 2548INDUC, 24 h
  MIC: 3.1 µg/mL (≈ 4.25 µM)
[19]; read-out: MIC
  MIC: 0.02 µg/mL (≈ 0.0274 µM)
[20]
  MIC: 0.39 µg/mL (≈ 0.534 µM)

## CC[C@H]1OC(=O)[C@H](C)[C@@H](O[C@H]2C[C@@](C)(OC)[C@@H](OC(N)=O)[C@H](C)O2)[C@H](C)[C@@H](O[C@@H]2O[C@H](C)C[C@H](N(C)C)[C@H]2O)[C@](C)(O)C[C@@H](C)[C@@H]2O[C@@]1(C)C(=O)[C@H]2C [Example 31, (9S)-4"-O-Aminocarbonyl-9-deoxo-11,12-dideoxy-9,12-epoxy-11-oxoerythromycinA]
[1]; ATCC13048, Enterobacter aerogenes ATCC 13048, BHI agar, 20-24 h, read-out: MIC
  MIC: 100 µg/mL (≈ 132 µM)
[2]; ATCC8043, Enterococcus faecium ATCC 8043, BHI agar, 20-24 h, read-out: MIC
  MIC: 0.05 µg/mL (≈ 0.0659 µM)
Escherichia coli DC-2; DC2, Escherichia coli DC-2, BHI agar, 20-24 h, read-out: MIC
  MIC: 100 µg/mL (≈ 132 µM)
Escherichia coli H560; Escherichia coli H560, BHI agar, 20-24 h
  MIC: 50 µg/mL (≈ 65.9 µM)
Escherichia coli JUHL; Escherichia coli JUHL, BHI agar, 20-24 h, read-out: MIC
  MIC: 100 µg/mL (≈ 132 µM)
Escherichia coli SS; Escherichia coli, 24 h
  MIC: 0.2 µg/mL (≈ 0.264 µM)
[3]; ATCC8045, Klebsiella pneumoniae ATCC 8045, BHI agar, 20-24 h, read-out: MIC
  MIC: 100 µg/mL (≈ 132 µM)
[4]; ATCC4698, BHI agar, read-out: MIC
  MIC: 0.05 µg/mL (≈ 0.0659 µM)
[5]; Micrococcus luteus, ATCC9341, 24 h, BHI agar
  MIC: 0.02 µg/mL (≈ 0.0264 µM)
[6]; CMX640, Providencia stuartii CMX 640, BHI agar, 20-24 h, read-out: MIC
  MIC: > 100 µg/mL
[7]; Pseudomonas aeruginosa A5007, BHI agar, 20-24 h, read-out: MIC
  MIC: > 100 µg/mL
[8]
  MIC: 50 µg/mL (≈ 65.9 µM)
[21]; read-out: MIC
  MIC: 1.56 µg/mL (≈ 2.06 µM)
[9]; Pseudomonas aeruginosa K799/WT, BHI agar, 20-24 h, read-out: MIC
  MIC: 100 µg/mL (≈ 132 µM)
Pseudomonas cepacia 2961; Burkholderia cepacia, read-out: MIC
  MIC: > 100 µg/mL
[10]
  MIC: 0.05 µg/mL (≈ 0.0659 µM)
Staphylococcus aureus 45; read-out: MIC
  MIC: 0.05 µg/mL (≈ 0.0659 µM)
[11]
  MIC: 0.05 µg/mL (≈ 0.0659 µM)
[12]
  MIC: 50 µg/mL (≈ 65.9 µM)
[13]; read-out: MIC
  MIC: 0.05 µg/mL (≈ 0.0659 µM)
[14]
  MIC: 0.05 µg/mL (≈ 0.0659 µM)
[15]; read-out: MIC
  MIC: 0.05 µg/mL (≈ 0.0659 µM)
[16]; [32]
  MIC: 0.02 µg/mL (≈ 0.0264 µM)
[17]
  MIC: 0.05 µg/mL (≈ 0.0659 µM)
[18]; read-out: MIC
  MIC: 0.78 µg/mL (≈ 1.03 µM)
[19]; read-out: MIC
  MIC: 0.02 µg/mL (≈ 0.0264 µM)
[20]
  MIC: 0.05 µg/mL (≈ 0.0659 µM)
